For 27 molecules, Ki results are on record in patent US9758538B2, “Pyrimidine derivatives” (PFIZER INC., priority 2015, dated 2017).

The test deals with truncated PI3Kα (p110α/iSH2 p85α), PI3KA_Act (Homo sapiens (Human), UniProt P42336). Nature of the test: PI3Kα biochemical kinase assay, fluorescence polarization format (PI3KA_Act). Particulars: 0.5 nM p110α/iSH2 p85, 1 mM ATP, 30 μM PIP2, 15-min preincubation, Morrison equation fit. Summed up: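 Enzyme: His-tagged p110α/p85α niSH2 complex from Sf21 baculovirus expression, IMAC-purified, tag cleaved, then SEC. Reactions ran 30 min at room temperature, stopped with 10 mM EDTA pH 8 (final), and were read by fluorescence polarization.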
Chain of truncated PI3Kα (p110α/iSH2 p85α), PI3KA_Act (P42336 whole entry, the tested form may be a part): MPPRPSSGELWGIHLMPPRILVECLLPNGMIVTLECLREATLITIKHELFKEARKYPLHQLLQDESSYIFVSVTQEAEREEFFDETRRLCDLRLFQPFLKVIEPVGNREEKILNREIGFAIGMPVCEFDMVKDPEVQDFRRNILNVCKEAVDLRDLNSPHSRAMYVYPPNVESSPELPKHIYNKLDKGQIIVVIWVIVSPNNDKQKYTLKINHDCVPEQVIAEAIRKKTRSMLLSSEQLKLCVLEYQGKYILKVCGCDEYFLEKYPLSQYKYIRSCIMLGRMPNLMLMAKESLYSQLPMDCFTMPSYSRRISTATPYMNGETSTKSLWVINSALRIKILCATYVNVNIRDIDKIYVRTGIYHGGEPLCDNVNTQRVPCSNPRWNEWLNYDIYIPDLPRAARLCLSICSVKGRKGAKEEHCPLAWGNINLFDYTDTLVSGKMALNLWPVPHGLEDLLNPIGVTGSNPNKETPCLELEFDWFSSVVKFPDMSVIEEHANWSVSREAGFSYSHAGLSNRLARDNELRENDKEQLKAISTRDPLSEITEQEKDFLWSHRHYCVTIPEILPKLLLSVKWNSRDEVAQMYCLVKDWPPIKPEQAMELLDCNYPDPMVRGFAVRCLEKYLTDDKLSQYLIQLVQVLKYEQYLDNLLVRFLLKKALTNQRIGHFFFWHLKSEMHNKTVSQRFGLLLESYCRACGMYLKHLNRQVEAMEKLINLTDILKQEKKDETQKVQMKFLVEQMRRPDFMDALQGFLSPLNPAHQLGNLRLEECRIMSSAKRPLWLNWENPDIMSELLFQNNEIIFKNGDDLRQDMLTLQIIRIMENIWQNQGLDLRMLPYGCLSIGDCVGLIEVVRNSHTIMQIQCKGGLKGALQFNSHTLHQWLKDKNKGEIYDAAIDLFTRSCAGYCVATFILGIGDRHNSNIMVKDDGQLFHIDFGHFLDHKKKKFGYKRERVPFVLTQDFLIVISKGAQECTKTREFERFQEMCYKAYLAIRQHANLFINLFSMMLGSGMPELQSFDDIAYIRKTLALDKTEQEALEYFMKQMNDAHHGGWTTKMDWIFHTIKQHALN

Molecules are shown by their SMILES. Where two headings read alike, the source gives them in different places.

A word on the Ki: it is a dissociation constant, usually derived from enzyme kinetics or from competition with a known ligand. On to `CCOC(=O)N1CC[C@](CO)(Nc2cc(-c3cnc(C)c(C#N)c3)nc(N3CCOCC3)n2)C1` [Example 128, ethyl (3S)-3-{[6-(5-cyano-6-methylpyridin-3-yl)-2-(morpholin-4-yl)pyrimidin-4-yl]amino}-3-(hydroxymethyl)pyrrolidine-1-carboxylate], for which, under “read-out: PI3KA_Act Ki”, the Ki amounted to 110 nM. Same read-out and setting: under `CCOC(=O)N1CC[C@](CO)(Nc2cc(-c3cnc(C)c(F)c3)nc(N3CCOCC3)n2)C1` [Example 129, ethyl (3S)-3-{[6-(5-fluoro-6-methylpyridin-3-yl)-2-(morpholin-4-yl)pyrimidin-4-yl]amino}-3-(hydroxymethyl)pyrrolidine-1-carboxylate] stands 8.29 nM; under `CCOC(=O)N1CC[C@](CO)(Nc2cc(-c3cnc(C)nc3)nc(N3CCOCC3)n2)C1` [Example 130, ethyl (3S)-3-(hydroxymethyl)-3-{[2′-methyl-2-(morpholin-4-yl)-4,5′-bipyrimidin-6-yl]amino}pyrrolidine-1-carboxylate], 0.83 nM. Take `Nc1ncc(-c2cc(N[C@@]3(CO)CCN(C(=O)NCC(F)F)C3)nc(N3CCOCC3)n2)cn1` [Example 131, (3S)-3-{[2′-amino-2-(morpholin-4-yl)-4,5′-bipyrimidin-6-yl]amino}-N-(2,2-difluoroethyl)-3-(hydroxymethyl)pyrrolidine-1-carboxamide]: where the note is “read-out: PI3KA_Act Ki”, the Ki came out at 0.205 nM. For `Nc1ncc(-c2nc(N3CCOCC3)nc(N[C@@]3(CO)CCN(C(=O)NCC(F)F)C3)c2F)cn1` [Example 132, (3S)-3-{[2′-amino-5-fluoro-2-(morpholin-4-yl)-4,5′-bipyrimidin-6-yl]amino}-N-(2,2-difluoroethyl)-3-(hydroxymethyl)pyrrolidine-1-carboxamide], for the setting “read-out: PI3KA_Act Ki”, the Ki came out at 0.097 nM. For `Nc1ncc(-c2cc(N[C@@]3(CO)CCN(C(=O)NCC(F)(F)F)C3)nc(N3CCOCC3)n2)cn1` [Example 133, (3S)-3-{[2′-amino-2-(morpholin-4-yl)-4,5′-bipyrimidin-6-yl]amino}-3-(hydroxymethyl)-N-(2,2,2-trifluoroethyl)pyrrolidine-1-carboxamide], the Ki (read-out: PI3KA_Act Ki) was 0.795 nM. Same read-out and setting: under `Cc1ncc(-c2cc(N[C@@]3(CO)CCN(C(=O)C4(F)CC4)C3)nc(N3CCOCC3)n2)cn1` [Example 136, (1-fluorocyclopropyl)[(3S)-3-(hydroxymethyl)-3-{[2′-methyl-2-(morpholin-4-yl)-4,5′-bipyrimidin-6-yl]amino}pyrrolidin-1-yl]methanone] stands 0.739 nM; under `Nc1ncc(-c2nc(N3CCOCC3)nc(N[C@@]3(CO)CCNC3)c2F)cn1` [Example 137, [(3S)-3-{[2′-amino-5-fluoro-2-(morpholin-4-yl)-4,5′-bipyrimidin-6-yl]amino}pyrrolidin-3-yl]methanol], 48.7 nM; under `Cc1ncc(-c2cc(N[C@@]3(CO)CCN(C(=O)OCC(F)F)C3)nc(N3CCOCC3)n2)cn1` [Example 138, 2,2-difluoroethyl (3S)-3-(hydroxymethyl)-3-{[2′-methyl-2-(morpholin-4-yl)-4,5′-bipyrimidin-6-yl]amino}pyrrolidine-1-carboxylate], 0.557 nM. On the same count and under the same terms, the value for `Nc1ncc(-c2nc(N3CCOCC3)nc(N[C@@]3(CO)CCN(C(=O)OCCF)C3)c2F)cn1` [Example 139, 2-fluoroethyl (3S)-3-{[2′-amino-5-fluoro-2-(morpholin-4-yl)-4,5′-bipyrimidin-6-yl]amino}-3-(hydroxymethyl)pyrrolidine-1-carboxylate] was below 0.018 nM. In turn, `Nc1ncc(-c2nc(N3CCOCC3)nc(N[C@@]3(CO)CCN(C(=O)OCC(F)(F)F)C3)c2F)cn1` [Example 140, 2,2,2-trifluoroethyl (3S)-3-{[2′-amino-5-fluoro-2-(morpholin-4-yl)-4,5′-bipyrimidin-6-yl]amino}-3-(hydroxymethyl)pyrrolidine-1-carboxylate] displayed a Ki (PI3KA_Act Ki (nM)) below 0.018 nM. Take `Nc1ncc(-c2cc(N[C@@]3(CO)CCCN(C(=O)OCC(F)F)C3)nc(N3CCOCC3)n2)cn1` [Example 141, 2,2-difluoroethyl (3S)-3-{[2′-amino-2-(morpholin-4-yl)-4,5′-bipyrimidin-6-yl]amino}-3-(hydroxymethyl)piperidine-1-carboxylate]: the Ki (read-out: PI3KA_Act Ki) stood at 0.043 nM. On the same count and under the same terms, under `Nc1ncc(-c2nc(N3CCOCC3)nc(N[C@]3(CO)CCCNC3)c2F)cn1` [Example 144, [(3R)-3-{[2′-amino-5-fluoro-2-(morpholin-4-yl)-4,5′-bipyrimidin-6-yl]amino}piperidin-3-yl]methanol] stands 13.9 nM; under `Nc1ncc(-c2nc(N3CCOCC3)nc(N[C@@]3(CO)CCCNC3)c2F)cn1` [Example 145, [(3S)-3-{[2′-amino-5-fluoro-2-(morpholin-4-yl)-4,5′-bipyrimidin-6-yl]amino}piperidin-3-yl]methanol], 2.53 nM. `CCC(=O)N1CCC[C@](CO)(Nc2nc(N3CCOCC3)nc(-c3cnc(N)nc3)c2F)C1` [Example 146, 1-[(3S)-3-{[2′-amino-5-fluoro-2-(morpholin-4-yl)-4,5′-bipyrimidin-6-yl]amino}-3-(hydroxymethyl)piperidin-1-yl]propan-1-one]: the Ki (read-out: PI3KA_Act Ki) is 0.237 nM. `CCC(=O)N1CCC[C@@](CO)(Nc2nc(N3CCOCC3)nc(-c3cnc(N)nc3)c2F)C1` [Example 147, 1-[(3R)-3-{[2′-amino-5-fluoro-2-(morpholin-4-yl)-4,5′-bipyrimidin-6-yl]amino}-3-(hydroxymethyl)piperidin-1-yl]propan-1-one]: the Ki (read-out: PI3KA_Act Ki) stood at 1.9 nM. For `Nc1ncc(-c2nc(N3CCOCC3)nc(N[C@]3(CO)CCCN(C(=O)OCC(F)F)C3)c2F)cn1` [Example 148, 2,2-difluoroethyl (3R)-3-{[2′-amino-5-fluoro-2-(morpholin-4-yl)-4,5′-bipyrimidin-6-yl]amino}-3-(hydroxymethyl)piperidine-1-carboxylate], the Ki (read-out: PI3KA_Act Ki) stood at 2.96 nM. Same read-out and setting: the value for `Nc1ncc(-c2nc(N3CCOCC3)nc(N[C@@]3(CO)CCCN(C(=O)OCC(F)F)C3)c2F)cn1` [Example 149, 2,2-difluoroethyl (3S)-3-{[2′-amino-5-fluoro-2-(morpholin-4-yl)-4,5′-bipyrimidin-6-yl]amino}-3-(hydroxymethyl)piperidine-1-carboxylate] was below 0.018 nM. On the same count and under the same terms, the value for `COCC(=O)N1CCC[C@](CO)(Nc2nc(N3CCOCC3)nc(-c3cnc(N)nc3)c2F)C1` [Example 150, 1-[(3S)-3-{[2′-amino-5-fluoro-2-(morpholin-4-yl)-4,5′-bipyrimidin-6-yl]amino}-3-(hydroxymethyl)piperidin-1-yl]-2-methoxyethanone] was 0.8 nM; that for `COCC(=O)N1CCC[C@@](CO)(Nc2nc(N3CCOCC3)nc(-c3cnc(N)nc3)c2F)C1` [Example 151, 1-[(3R)-3-{[2′-amino-5-fluoro-2-(morpholin-4-yl)-4,5′-bipyrimidin-6-yl]amino}-3-(hydroxymethyl)piperidin-1-yl]-2-methoxyethanone] was 1.82 nM; that for `CC(=O)N1CCC[C@@](CO)(Nc2nc(N3CCOCC3)nc(-c3cnc(N)nc3)c2F)C1` [Example 152, 1-[(3R)-3-{[2′-amino-5-fluoro-2-(morpholin-4-yl)-4,5′-bipyrimidin-6-yl]amino}-3-(hydroxymethyl)piperidin-1-yl]ethanone] was 1.65 nM.

As for `CC(=O)N1CCC[C@](CO)(Nc2nc(N3CCOCC3)nc(-c3cnc(N)nc3)c2F)C1` [Example 153, 1-[(3S)-3-{[2′-amino-5-fluoro-2-(morpholin-4-yl)-4,5′-bipyrimidin-6-yl]amino}-3-(hydroxymethyl)piperidin-1-yl]ethanone], the Ki (read-out: PI3KA_Act Ki) was determined as 0.849 nM. Consider `COC(=O)N1CCC[C@](CO)(Nc2nc(N3CCOCC3)nc(-c3cnc(N)nc3)c2F)C1` [Example 154, methyl (3S)-3-{[2′-amino-5-fluoro-2-(morpholin-4-yl)-4,5′-bipyrimidin-6-yl]amino}-3-(hydroxymethyl)piperidine-1-carboxylate], for which the Ki (read-out: PI3KA_Act Ki) is below 0.018 nM. As to `COC(=O)N1CCC[C@@](CO)(Nc2nc(N3CCOCC3)nc(-c3cnc(N)nc3)c2F)C1` [Example 155, methyl (3R)-3-{[2′-amino-5-fluoro-2-(morpholin-4-yl)-4,5′-bipyrimidin-6-yl]amino}-3-(hydroxymethyl)piperidine-1-carboxylate], for the setting “read-out: PI3KA_Act Ki”, the Ki turned out to be 3.07 nM. On the same count and under the same terms, under `Nc1ncc(-c2nc(N3CCOCC3)nc(N[C@@]3(CO)CCCN(C(=O)C4CC4)C3)c2F)cn1` [Example 156, [(3S)-3-{[2′-amino-5-fluoro-2-(morpholin-4-yl)-4,5′-bipyrimidin-6-yl]amino}-3-(hydroxymethyl)piperidin-1-yl](cyclopropyl)methanone] stands 0.454 nM; under `Nc1ncc(-c2nc(N3CCOCC3)nc(N[C@]3(CO)CCCN(C(=O)C4CC4)C3)c2F)cn1` [Example 157, [(3R)-3-{[2′-amino-5-fluoro-2-(morpholin-4-yl)-4,5′-bipyrimidin-6-yl]amino}-3-(hydroxymethyl)piperidin-1-yl](cyclopropyl)methanone], 1.87 nM.

For the molecule `Nc1ncc(-c2nc(N3CCOCC3)nc(N[C@@]3(CO)CCCN(C(=O)C4(F)CC4)C3)c2F)cn1` [Example 159, [(3S)-3-{[2′-amino-5-fluoro-2-(morpholin-4-yl)-4,5′-bipyrimidin-6-yl]amino}-3-(hydroxymethyl)piperidin-1-yl](1-fluorocyclopropyl)methanone], the Ki (read-out: PI3KA_Act Ki) amounted to 0.102 nM.
